Source: patent US20070270336A1, “Method for accelerating cutaneous barrier recovery” (Shiseido Company, Ltd., priority 2006, published 2007)
“Also recorded” adds a separate entry of the source.

Key:
[1] = test system: differentiated cultured human keratinocytes (CHK); experiment: Evaluation of intracellular potassium levels (PBFI-AM fluorescence); format: cell-based; conditions: FIG. 3
Protocol: Evaluation of intracellular potassium levels All in vitro cell culture measurements were carried out using second passage human neonatal keratinocytes. We incubated cells in a low calcium medium (0.1 mM calcium, HuMedia-KG2, KURABO, Osaka, Japan) for at least 5 days and used the cells within 10 days. These keratinocytes were incubated until 100% of confluency, incubated 3 more days, and then incubated in a high calcium medium (1.8 mM calcium) for 24 hours to induce differentiation of the keratinocytes. We then added PBF1-AM (Molecular Probes, Eugene, Oreg.), final concentration 10 μM, and then incubated the cells for 4 hours at 37 C. The cultured keratinocytes were then washed in the medium described above. The cover slip was mounted on a fluorescence microscope (IX70, TS Olympus, Tokyo, Japan) equipped with a 75 W xenon-lamp and band-path filters of 340 nm. Measurements were carried out at the room temperature. Imaging data, recorded by a high-sensitive silicon intensifier target camera (C4742, Hamamatsu Photonics, Hamamatsu, Japan) were recorded by a fluorescence analyzing system (AQUACOSMOS/RATIO1, Hamamatsu Photonics, Hamamatsu, Japan).

[2] = test system: hairless mice flank skin; experiment: Permeability barrier recovery (TEWL) after tape stripping; format: in vivo, mouse; conditions: for permeability barrier recovery after tape stripping (percent recovery of TEWL): single topical application after tape stripping, each reagent 1 mM (FIG. 1 legend), 1, 3 and 6 hours, vs water control
Protocol: All experiments were performed on 7-10-week old male hairless mice (HR-1, Hoshino, Japan). All procedures for measuring of skin barrier function, disrupting the barrier and applying the sample were carried out under anesthesia. All experiments were approved by the Animal Research Committee of the Shiseido Research Center in accordance with the National Research Council Guide. 1-EBIO, diazoxide, gilbenclamide, minoxidil, dequalinium were purchased from Tocris (TOCRIS, Bristol, UK). Valinomycin was purchased from Wako (Wako Osaka, Japan).
(§1) Permeability barrier function was evaluated by measurement of transepidermal water loss (TEWL) with an electric water analyzer, as described previously (Denda, M., Sato J., Masuda Y., Kuramoto M., Elias P. M., Feingold K. R. (1998). J Invest Dermatol 111(5): 858-63). For barrier recovery experiments, both sides of flank skin were treated with repeated tape stripping until the TEWL reached 7-10 mg per cm^2 per h. […] The areas were covered with plastic membranes for 15 min (both treated and control sites) and then the membranes were removed. Previous studies have shown that occlusion for a longer period of time delays barrier repair. […] Two points on one side of a flank were measured and 4-8 mice were used to evaluate the effects of each treatment. We always disrupted the barrier between 7:00AM to 8:00AM to avoid variations in repair rate due to the influence of circadian rhythm. TEWL was then measured over the same sites at 1, 3 and 6 hours after barrier disruption. The barrier recovery results are expressed as percent of recovery, because of variations from day to day in the extent of barrier disruption. In each animal, the percentage of recovery was calculated by the following formula: (TEWL immediately after barrier disruption−TEWL at indicated time point)/(TEWL immediately after barrier disruption−baseline TEWL)×100%). All experiments were performed on 7 to 10-week-old male hairless mice (HR-1, Hoshino, Japan). All procedures including measurement of skin barrier function, disruption of the barrier, and application of test samples were carried out under anesthesia.

[3] = test system: hairless mice epidermis; experiment: Epidermal hyperplasia induced by barrier disruption under low humidity; format: in vivo, mouse
Protocol: Animals were kept separately in 7.2 liter cages in which the relative humidity was maintained at less than 10% with dry air as described previously (Denda et al. 1998a). The temperature was the same in all cases (22-25° C.), and fresh air was circulated 100 times per hour. Animals were kept out of the direct stream of air. During the experiments, the animal's behavior was not restricted. The level of NH3 was always below 1 ppm. Animals were first kept in a dry condition for 48 hours and then the skin on both flank sides was treated with acetone-soaked cotton balls, as described previously (Denda et al. 1998a). The procedure was terminated when TEWL reached 2.5-3.5 mg per cm^2 per h. Immediately after the barrier disruption, 100 ul of Diazoxide aqueous solution (100 uM) was applied on one side of the treated area. Water was applied on the other side. Then the animals were again kept in the dry condition for 48 hours. After the experiments, animals were euthanized with diethylether inhalation and skin samples were taken from the treated area. […] On each section, five areas were selected at random; the thickness of the epidermis was measured with an optical micrometer, and the mean value was calculated. […] On each section, five areas were selected at random from one section; the number of immunostained cells per 1 mm of epidermis was counted and the mean value was calculated. […]

[4] = test system: mouse epidermis (stratum granulosum lamellar bodies); experiment: Electron-microscopic study of lamellar body secretion after acetone treatment; format: in vivo; conditions: one hour after acetone treatment; electron microscopy; FIG. 4
Description: The full thickness of skin samples for electron microscopy was minced into pieces (<0.5 mm^3) and fixed in modified Karnovsky's fixative overnight. They were then post-fixed in 2% aqueous osmium tetroxide or 0.2% ruthenium tetroxide as described previously (Denda et al. 1998, op. cit.). After fixation, all samples were dehydrated in graded ethanol solutions, and embedded in an Epon-epoxy mixture. Thin sections were stained with lead citrate and uranyl acetate and viewed by electron microscopy.

[5] = test system: hairless mouse flanks; experiment: Permeability barrier recovery (TEWL) after acetone treatment; format: in vivo; conditions: topical potassium ionophore; FIG. 2B; n=4
Protocol: as §1, with “[…] Immediately after” for “For”, “disruption 100 μl” for “recovery experiments, both sides”, “an aqueous solution containing 1 μM of reagent or water alone (control) was applied to the” for “flank skin were”, “area.” for “with repeated tape stripping until the TEWL reached 7-10 mg per cm^2 per h.”, “All experiments were performed on 7 to 10-week-old male hairless mice (HR-1, Hoshino, Japan). All procedures including measurement of skin barrier function, disruption of the barrier, and application of test samples were carried out under anesthesia.” left out

| Structure (SMILES) | change in intracellular potassium (K+) concentration ([1]; 10 μM final concentration) | permeability barrier recovery after tape stripping (percent recovery of TEWL) [2] | lamellar body (LB) secretion at SG-SC interface [4] | other results |
| --- | --- | --- | --- | --- |
| CCn1c(=O)[nH]c2ccccc21 [1-EBIO, 1-Ethyl-2-benzoimidazollnone] | decreased intracellular K^+ concentrations; also recorded: decreased intracellular potassium concentrations | significantly accelerated barrier repair; also recorded: accelerated barrier recovery |  |  |
| Cc1cc(N)c2ccccc2[n+]1CCCCCCCCCC[n+]1c(C)cc(N)c2ccccc21 [dequalinium, 1,1-(1,10-Decanedyl)bis(4-amino-2-methylquinolinium)dichloride] |  | significantly delayed barrier recovery |  |  |
| CC1=Nc2ccc(Cl)cc2S(=O)(=O)N1 [diazoxide, 7-chloro-3-methyl-2H-1,2,4-benzothiadiazine 1,1-dioxide] | decreased intracellular K^+ concentrations; also recorded: decreased intracellular potassium concentrations | significantly accelerated barrier repair; also recorded: accelerated barrier recovery | much more secreted material is evident at SG-SC interface; also recorded: accelerated the secretion of LB | epidermal hyperplasia induced by acetone treatment under low humidity ([3]; topical 100 uM aqueous solution, 48 hours dry condition, vs water, FIG. 5): prevented the epidermal hyperplasia; epidermal proliferation (BrdU positive cells), quantified ([3]; topical 100 uM, FIG. 6, 6 control mice and 5 treated, ANOVA probability 0.0372): Significant reductions of epidermal proliferation |
| COc1ccc(Cl)cc1C(=O)NCCc1ccc(S(=O)(=O)NC(=O)NC2CCCCC2)cc1 [gilbenclamide, 5-chloro-N{2-[4[[[cycohexylamino]carbonyl]amino]sulfonyl]phenyl}-2-metyhoxybenzamide] |  | significantly delayed barrier recovery |  |  |
| CC(C)[C@@H]1NC(=O)[C@H](C)OC(=O)[C@@H](C(C)C)NC(=O)[C@@H](C(C)C)OC(=O)[C@H](C(C)C)NC(=O)[C@H](C)OC(=O)[C@@H](C(C)C)NC(=O)[C@@H](C(C)C)OC(=O)[C@H](C(C)C)NC(=O)[C@H](C)OC(=O)[C@@H](C(C)C)NC(=O)[C@@H](C(C)C)OC1=O [valinomycin] |  |  | much more secreted material is evident at SG-SC interface; also recorded: accelerated the secretion of LB | change in intracellular potassium (K+) concentration ([1]; 1 μM final concentration): decreased intracellular K^+ concentrations; also recorded: decreased intracellular potassium concentrations; permeability barrier recovery after tape stripping ([2]; topical potassium ionophore, FIG. 2A, n=4): accelerated barrier recovery; permeability barrier recovery after acetone treatment [5]: accelerated barrier recovery |
